# Results reported in US10906876B2, “Tetrahydroisoquinolines as selective NADPH oxidase 2 inhibitors” (University of Pittsburgh—Of the Commonwealth System of …, priority 2013, dated 2021).
# Target: T1, Nox4 (Homo sapiens, UniProt Q9NPH5)
# T1 construct: Plasmids encoding full-length human cDNAs for Nox1 (pcDNA3.1-hNox1), NOXO1 (pcDNA3.1-hNOXO1), NOXA1 (pCMVsport 6-hNOXA1), p47phox (pCMV-Tag4A-hp47) and Nox4 (pcDNA3-hNox4); expressed in transfected cells; host or cells: COS-22 (COS-7 stably expressing human p22phox), transient transfection with pcDNA3.1/Hygro-hNox4
# T1 sequence (Q9NPH5 1-578): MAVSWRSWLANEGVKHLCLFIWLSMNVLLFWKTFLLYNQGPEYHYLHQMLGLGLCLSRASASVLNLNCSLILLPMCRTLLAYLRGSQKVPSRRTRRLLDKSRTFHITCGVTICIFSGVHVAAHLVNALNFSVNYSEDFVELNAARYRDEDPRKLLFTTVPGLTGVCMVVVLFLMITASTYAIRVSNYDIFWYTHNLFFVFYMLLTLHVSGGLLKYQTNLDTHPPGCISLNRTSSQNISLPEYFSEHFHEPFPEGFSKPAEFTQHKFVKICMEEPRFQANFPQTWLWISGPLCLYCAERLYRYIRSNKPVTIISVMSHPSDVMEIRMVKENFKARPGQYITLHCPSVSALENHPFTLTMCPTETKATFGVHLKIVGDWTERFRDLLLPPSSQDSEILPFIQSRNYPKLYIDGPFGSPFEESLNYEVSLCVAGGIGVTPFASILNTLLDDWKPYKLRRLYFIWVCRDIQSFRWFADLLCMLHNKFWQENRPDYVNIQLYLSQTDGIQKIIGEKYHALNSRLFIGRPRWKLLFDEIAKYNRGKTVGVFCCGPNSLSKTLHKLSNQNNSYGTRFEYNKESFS
# T1 sequence (P13498 2-195 partner limits assumed): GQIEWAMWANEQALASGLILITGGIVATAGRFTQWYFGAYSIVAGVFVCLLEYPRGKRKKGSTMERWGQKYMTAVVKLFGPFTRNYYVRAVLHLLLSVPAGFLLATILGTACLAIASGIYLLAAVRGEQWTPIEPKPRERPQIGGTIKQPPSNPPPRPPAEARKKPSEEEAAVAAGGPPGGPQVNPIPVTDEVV
# Assay: Constitutive Nox4 activity in transiently transfected COS-Nox4 cells, Amplex Red assay
# Format: cell-based
# Settings: for Nox4 inhibitory activity: COS-Nox4 cells; for IC50: constitutive activity, transiently transfected COS-Nox4 cells, read-out: IC50 of ROS generation, Nox4 (Amplex Red assay)
# From the text: Plasmids encoding full-length human cDNAs for Nox1 (pcDNA3.1-hNox1), NOXO1 (pcDNA3.1-hNOXO1), NOXA1 (pCMVsport 6-hNOXA1), p47phox (pCMV-Tag4A-hp47) and Nox4 (pcDNA3-hNox4) were kindly provided by Dr. David Lambeth (Emory University, Ga.). Plasmids encoding Nox1, NOXO1, or NOXA1 were transformed and amplified into Escherichia coli strain TOP10 (Invitrogen, Carlsbad, Calif.). Plasmids were purified using a QIAfilter plasmid purification kit (QIAGEN Inc., Valencia, Calif.). For human Nox4 expression, the BglII/NotI restriction fragment from the pcDNA3-hNox4 was subcloned into the plasmid pcDNA3.1/Hygro(−) (Invitrogen, Carlsbad, Calif.) to generate pcDNA3.1/Hygro-hNox4. The fragment sequence, in-frame insertion and orientation were validated by DNA sequencing after PCR amplification. pcDNA3.1/Hygro-hNox4 was amplified into Escherichia coli strain TOP10 and purified with a QIAfilter plasmid purification kit.
# Cell transfection was carried out using Lipofectamine LTX and Plus reagent (Invitrogen, Carlsbad, Calif., USA), according to the manufacturer's instructions. COS-22 cells were transiently co-transfected with pcDNA 3.1-hNox1, pCMVsport 6-hNOXA1 and pcDNA3.1-hNoxO1 (COS-Nox1/NOXO1/NOXA1 cells) or with pcDNA3.1/Hygro-hNox4 (COS-Nox4 cells). Cells were used 24 hr after transfection. Adherent cells were harvested by incubating with 0.05% trypsin/EDTA for 5 min at 37° C. Following addition of DMEM/10% FBS to neutralize the trypsin, the cells were pelleted by centrifugation at 1100×g for 5 min at 4° C. and used for the experiments.
# H2O2 production was quantified in intact COS-Nox4 cells by Amplex® Red. Briefly, COS-Nox4 cells (5×10^4 cells/ml) were re-plated into 384-well plate in assay buffer (25 mM Hepes, pH 7.4, containing 0.12 M NaCl, 3 mM KCl, 1 mM MgCl2). The cells were incubated in the presence or absence of drugs at 37° C. in assay buffer supplemented with 0.1 mM Amplex® Red, and 0.32 U/ml of horse radish peroxidase (HRP) for 15 min. Fluorescence measurements were made using a Biotek Synergy 4 Hybrid Multi-Mode Microplate Reader with a 530/25-excitation and a 590/35-emission filter. The reaction was monitored at 37° C. for 1 h. A standard curve of known H2O2 concentrations was included on each plate. Nox4 activity was obtained by calculating the rate of H2O2 production as RFU/min and then subtracting the equivalent value given by non-transfected COS-22 cells. Similarly, H2O2 production by Nox2 cells was also measured by Amplex® Red as described above but in the presence of 150 U/mL of SOD and the reaction was initiated by addition of 5 μM PMA. The rate of H2O2 production in this case was calculated as RFU/min after the subtraction of the equivalent value given by non-stimulated cells. Data are expressed as % of vehicle control.
# All data are expressed as means±SEM. IC50 values were determined using the GraphPad Prism software (GraphPad Software, San Diego, Calif.) for non-linear regression three-parameters, with constrain values of 100 and 0 for top and bottom, respectively, and assumes a Hill slope of 1.
Structure (SMILES),Nox4 inhibitory activity,IC50 [µM]
"C=C(C)CC1NC2CC(C)(C)C1c1c(Br)cccc12 (racemic) [Compound 7, (±)-(1S,4R,9S)-5-Bromo-3,3-dimethyl-9-(2-methylallyl)-1,2,3,4-tetrahydro-1,4-(epimino-methano)-naphthalene]",inactive,> 100
"C=C(C)CC1NC2CC(C)(C)C1c1ccccc12 (racemic) [Compound 8, (±)-(1S,4R,9S)-3,3-Dimethyl-9-(2-methylallyl)-1,2,3,4-tetrahydro-1,4-(epiminomethano)-naphthalene]",inactive,–
"C=C(C)CC1C2c3ccccc3C(CC2(C)C)N1Cc1cccc(F)c1 (racemic) [Compound 11a, (±)-(1S,4R,9S)-10-(3-Fluorobenzyl)-3,3-dimethyl-9-(2-methylallyl)-1,2,3,4-tetrahydro-1,4-(epiminomethano)naphthalene]",–,> 100
"C=C(C)CC1C2c3c(Br)cccc3C(CC2(C)C)N1Cc1ccc2c(c1)OCO2 (racemic) [Compound 11d, (±)-(1S,4R,9S)-10-(Benzo[d][1,3]dioxol-5-ylmethyl)-5-bromo-3,3-dimethyl-9-(2-methylallyl)-1,2,3,4-tetrahydro-1,4-(epiminomethano)naphthalene]",–,> 100
"C=C(C)CC1C2c3c(Br)cccc3C(CC2(C)C)N1Cc1cc(C)on1 (racemic) [Compound 11e, (±)-3-(1S,4R,9S)-5-Bromo-3,3-dimethyl-9-(2-methylallyl)-1,2,3,4-tetrahydro-1,4-(epimino-methano) naphthalen-10-yl)methyl)-5-methylisoxazole]",–,> 100
"C=C(C)CC1C2c3c(Br)cccc3C(CC2(C)C)N1Cc1cccc(F)c1 (racemic) [Compound 11f, (±)-(1S,4R,9S)-5-Bromo-10-(3-fluorobenzyl)-3,3-dimethyl-9-(2-methylallyl)-1,2,3,4-tetrahydro-1,4-(epiminomethano)naphthalene]",–,> 100
"C=C(C)CC1C2c3c(Br)cccc3C(CC2(C)C)N1CCCCC (racemic) [Compound 11g, (±)-(1S,4R,9S)-5-Bromo-3,3-dimethyl-9-(2-methylallyl-10-pentyl-1,2,3,4-tetrahydro-1,4-(epiminomethano)naphthalene]",virtually no effect,> 100
"C=C(C)CC1C2c3c(Br)cccc3C(CC2(C)C)N1Cc1cccs1 (racemic) [Compound 11h, (±)-(1S,4R,9S)-5-Bromo-3,3-dimethyl-9-(2-methylallyl)-10-(thiophen-2-ylmethyl)-1,2,3,4-tetrahydro-1,4-(epiminomethano)naphthalene]",virtually no effect,–
"C=C(C)CC1NC2CC(C)(C)C1c1c(-c3ccc(Cl)c(Cl)c3)cccc12 (racemic) [Compound 12a, (±)-(1S,4R,9S)-5-(3,4-Dichlorophenyl)-3,3-dimethyl-9-(2-methylallyl)-1,2,3,4-tetrahydro-1,4-(epiminomethano)naphthalene]",–,> 100
C=C(C)CC1C2c3c(-c4ccc(Cl)c(Cl)c4)cccc3C(CC2(C)C)N1CCCCC (racemic) [Compound 12c],–,> 100
CC(C)CC1NC2CC(C)(C)C1c1c(Br)cccc12 (racemic) [Compound 13],–,> 100
"C=C(C)CC1C2c3c(Br)cccc3C(CC2(C)C)N1S(C)(=O)=O (racemic) [Compound 14a, (±)-(1S,4R,9S)-5-Bromo-3,3-dimethyl-9-(2-methylallyl)-10-(methylsulfonyl)-1,2,3,4-tetrahydro-1,4-(epiminomethano)naphthalene]",–,> 100
